# Results taken from ChEMBL document CHEMBL1135808, “A new type of mixed anhydride and its applications to the synthesis of 7-substituted 8-chloro-5,5-dioxoimidazo[1,2-b][1,4,2]benzodithiazines with in vitro antitumor activity” (2002).
# What was measured:
# HCC 2998 = assay: In vitro growth inhibition against colon cancer HCC2998 cell line was reported.; type: functional; settings: Homo sapiens
# HOP-62 [1] = assay: In vitro total growth inhibition against non-small-cell lung cancer HOP-62 cell lines was reported.; type: functional; settings: Homo sapiens, read-out: Log TGI (converted)
# MDA-MB-435 [2] = assay: In vitro total growth inhibition against breast cancer MDA-MB-435 cell lines was reported.; settings: Homo sapiens, read-out: Log TGI (converted)
# HCT-116 [3] = assay: In vitro total growth inhibition against colon cancer HCT116 cell lines was reported.; type: functional; settings: Homo sapiens, read-out: Log TGI (converted)
# NCI-H23 [4] = assay: In vitro total growth inhibition against non-small-cell lung cancer NCI-H23 cell lines was reported.; type: functional; settings: Homo sapiens, read-out: Log TGI (converted)
# SK-MEL-2 [5] = assay: In vitro total growth inhibition against melanoma SK-MEL-2 cell lines was reported.; type: functional; settings: Homo sapiens, read-out: Log TGI (converted)
# IGROV-1 [6] = assay: In vitro growth inhibition against ovarian cancer IGROV1 cell line was reported.; type: functional; settings: Homo sapiens
# OVCAR-3 = assay: In vitro total growth inhibition against ovarian cancer OVCAR-3 cell lines was reported.; type: functional; settings: Homo sapiens, read-out: Log TGI (converted)
# RXF 393 [7] = assay: Log of molar concentration leading to 50% cell death against renal cancer RXF 393 cell line was reported; type: functional; settings: Homo sapiens, read-out: Log LC50 (the source's name) (converted)
# U-251 [8] = assay: In vitro total growth inhibition against CNS cancer U251 cell lines was reported.; type: functional; settings: Homo sapiens, read-out: Log TGI (converted)
# SK-MEL-5 [9] = assay: In vitro total growth inhibition against melanoma SK-MEL-5 cell lines was reported.; type: functional; settings: Homo sapiens, read-out: Log TGI (converted)
# SK-MEL-2 [10] = assay: Log of molar concentration leading to 50% cell death against melanoma SK-MEL-2 cell line was reported; type: functional; settings: Homo sapiens, read-out: Log LC50 (the source's name) (converted)
# NCI/ADR-RES [11] = assay: In vitro growth inhibition against breast cancer NCI/ADR-RES cell line was reported.; type: functional; settings: Homo sapiens
# UACC-257 [12] = assay: In vitro total growth inhibition against melanoma UACC-257 cell lines was reported.; type: functional; settings: Homo sapiens, read-out: Log TGI (converted)
# SNB-19 = assay: In vitro growth inhibition against CNS cancer SNB-19 cell line was reported.; type: functional; settings: Homo sapiens
# PC-3 = assay: Log of molar concentration leading to 50% cell death against prostate cancer PC-3 cell line was reported; type: functional; settings: Homo sapiens, read-out: Log LC50 (the source's name) (converted)
# UACC-257 [13] = assay: In vitro total growth inhibition against melanoma UACC-257 cell line was reported.; type: functional; settings: Homo sapiens
# IGROV-1 [14] = assay: Log of molar concentration leading to 50% cell death against ovarian cancer IGROV1 cell line was reported; type: functional; settings: Homo sapiens, read-out: Log LC50 (the source's name) (converted)
# HCT-116 [15] = assay: In vitro growth inhibition against colon cancer HCT116 cell line was reported.; type: functional; settings: Homo sapiens
# SNB-75 = assay: In vitro growth inhibition against CNS cancer SNB-75 cell line was reported.; type: functional; settings: Homo sapiens
# RPMI-8226 = assay: In vitro total growth inhibition against leukemia […] cell lines was reported.; type: functional; settings: Homo sapiens, read-out: Log TGI (converted)
# DU-145 = assay: Log of molar concentration leading to 50% cell death against prostate cancer […] cell line was reported; type: functional; settings: Homo sapiens, read-out: Log LC50 (the source's name) (converted)
# UACC-62 = assay: In vitro growth inhibition against melanoma UACC-62 cell line was reported.; type: functional; settings: Homo sapiens
# MCF7 [16] = assay: In vitro total growth inhibition against breast cancer MCF 7 cell lines was reported.; type: functional; settings: Homo sapiens, read-out: Log TGI (converted)
# SF-539 [17] = assay: In vitro total growth inhibition against CNS cancer SF-539 cell lines was reported.; type: functional; settings: Homo sapiens, read-out: Log TGI (converted)
# 786-0 = assay: Log of molar concentration leading to 50% cell death against renal cancer […] cell line was reported; type: functional; settings: Homo sapiens, read-out: Log LC50 (the source's name) (converted)
# Homo sapiens = species on record: Homo sapiens; assay: In vitro total growth inhibition against non-small-cell lung cancer EKVX cell lines was reported.; type: functional; settings: read-out: Log TGI (converted)
# SF-295 = assay: In vitro growth inhibition against CNS cancer SF-295 cell line was reported.; type: functional; settings: Homo sapiens
# MCF7 [18] = assay: In vitro growth inhibition against breast cancer MCF 7 cell line was reported.; type: functional; settings: Homo sapiens
# SK-MEL-5 [19] = assay: Log of molar concentration leading to 50% cell death against melanoma SK-MEL-5 cell line was reported; type: functional; settings: Homo sapiens, read-out: Log LC50 (the source's name) (converted)
# SK-MEL-28 = assay: In vitro growth inhibition against melanoma SK-MEL-28 cell line was reported.; type: functional; settings: Homo sapiens
# HOP-92 = assay: In vitro growth inhibition against non-small-cell lung cancer HOP-92 cell line was reported.; type: functional; settings: Homo sapiens
# HCT-15 [20] = assay: In vitro growth inhibition against colon cancer […] cell line was reported.; type: functional; settings: Homo sapiens
# SF-539 [21] = assay: In vitro growth inhibition against CNS cancer SF-539 cell line was reported.; type: functional; settings: Homo sapiens
# Malme-3M = assay: In vitro growth inhibition against melanoma MALME 3M cell line was reported.; type: functional; settings: Homo sapiens
# RXF 393 [22] = assay: In vitro growth inhibition against renal cancer RXF 393 cell line was reported.; type: functional; settings: Homo sapiens
# MDA-MB-435 [23] = assay: In vitro growth inhibition against breast cancer MDA-MB-435 cell line was reported.; settings: Homo sapiens
# TK-10 [24] = assay: In vitro total growth inhibition against renal cancer TK-10 cell lines was reported.; type: functional; settings: Homo sapiens, read-out: Log TGI (converted)
# KM12 = assay: Log of molar concentration leading to 50% cell death against colon cancer KM12 cell line was reported; type: functional; settings: Homo sapiens, read-out: Log LC50 (the source's name) (converted)
# UACC-257 [25] = assay: Log of molar concentration leading to 50% cell death against melanoma UACC-257 cell line was reported; type: functional; settings: Homo sapiens, read-out: Log LC50 (the source's name) (converted)
# U-251 [26] = assay: Log of molar concentration leading to 50% cell death against CNS cancer U251 cell line was reported; type: functional; settings: Homo sapiens, read-out: Log LC50 (the source's name) (converted)
# NCI-H322M = assay: Log of molar concentration leading to 50% cell death against non-small-cell lung cancer NCI-H322M cell line was reported; type: functional; settings: Homo sapiens, read-out: Log LC50 (the source's name) (converted)
# HCT-15 [27] = assay: In vitro total growth inhibition against colon cancer HCT-15 cell lines was reported.; type: functional; settings: Homo sapiens, read-out: Log TGI (converted)
# SF-268 = assay: In vitro growth inhibition against CNS cancer SF-268 cell line was reported.; type: functional; settings: Homo sapiens
# CAKI-1 = assay: In vitro total growth inhibition against renal cancer CAKI-1cell lines was reported.; type: functional; settings: Homo sapiens, read-out: Log TGI (converted)
# A549 = assay: In vitro total growth inhibition against non-small-cell lung cancer A 549/ATCC cell lines was reported.; type: functional; settings: Homo sapiens, read-out: Log TGI (converted)
# EKVX [28] = assay: In vitro growth inhibition against non-small-cell lung cancer EKVX cell line was reported.; type: functional; settings: Homo sapiens
# NCI-H46 = assay: In vitro growth inhibition against non-small-cell lung cancer […] cell line was reported.; type: functional; settings: Homo sapiens
# MDA-N = assay: In vitro growth inhibition against breast cancer MDA-N cell line was reported.; type: functional; settings: Homo sapiens
# HT-29 = assay: In vitro total growth inhibition against colon cancer HT-29 cell lines was reported.; type: functional; settings: Homo sapiens, read-out: Log TGI (converted)
# EKVX [29] = assay: Log of molar concentration leading to 50% cell death against non-small-cell lung cancer EKVX cell line was reported; type: functional; settings: Homo sapiens, read-out: Log LC50 (the source's name) (converted)
# K562 = assay: In vitro total growth inhibition against leukemia K-562 cell lines was reported.; type: functional; settings: Homo sapiens, read-out: Log TGI (converted)
# Tumor Cell line = assay: In vitro inhibition of 50% cell growth was reported as log of molar concentration for 60 cell lines.; type: functional; settings: Homo sapiens
# MCF7 [30] = assay: Log of molar concentration leading to 50% cell death against breast cancer MCF 7 cell line was reported; type: functional; settings: Homo sapiens, read-out: Log LC50 (the source's name) (converted)
# NCI/ADR-RES [31] = assay: In vitro total growth inhibition against breast cancer NCI/ADR-RES cell lines was reported.; type: functional; settings: Homo sapiens, read-out: Log TGI (converted)
# NCI-H23 [32] = assay: In vitro growth inhibition against non-small-cell lung cancer NCI-H23 cell line was reported.; type: functional; settings: Homo sapiens
# TK-10 [33] = assay: In vitro growth inhibition against renal cancer TK-10 cell line was reported.; type: functional; settings: Homo sapiens
# LOX IMVI = assay: In vitro growth inhibition against melanoma LOX IMVI cell line was reported.; type: functional; settings: Homo sapiens
# HOP-62 [34] = assay: In vitro growth inhibition against non-small-cell lung cancer HOP-62 cell line was reported.; type: functional; settings: Homo sapiens
structure (smiles),measurement,setting,value
O=C(Nc1cccc2nsnc12)c1cc2c(cc1Cl)Sc1nccn1S2(=O)=O,GI50,HCC 2998,3.39 µM
same,TGI,HOP-62 [1],3.8 µM
same,TGI,MDA-MB-435 [2],49 µM
same,TGI,HCT-116 [3],5.37 µM
same,TGI,NCI-H23 [4],25.1 µM
same,TGI,SK-MEL-2 [5],25.7 µM
same,GI50,IGROV-1 [6],5.5 µM
same,TGI,OVCAR-3,3.47 µM
same,CC50,RXF 393 [7],56.2 µM
same,TGI,U-251 [8],15.8 µM
same,TGI,SK-MEL-5 [9],33.9 µM
same,CC50,SK-MEL-2 [10],64.6 µM
same,GI50,NCI/ADR-RES [11],17.8 µM
same,TGI,UACC-257 [12],3.39 µM
same,GI50,SNB-19,12 µM
same,CC50,PC-3,6.46 µM
same,GI50,UACC-257 [13],1.82 µM
same,CC50,IGROV-1 [14],79.4 µM
same,GI50,HCT-116 [15],2.57 µM
same,GI50,SNB-75,3.89 µM
same,TGI,RPMI-8226,4.07 µM
same,CC50,DU-145,6.03 µM
same,GI50,UACC-62,5.37 µM
same,TGI,MCF7 [16],3.39 µM
same,TGI,SF-539 [17],4.9 µM
same,CC50,786-0,55 µM
same,TGI,Homo sapiens,4.68 µM
same,GI50,SF-295,11.2 µM
same,GI50,MCF7 [18],1.74 µM
same,CC50,SK-MEL-5 [19],72.4 µM
same,GI50,SK-MEL-28,2.45 µM
same,GI50,HOP-92,5.89 µM
same,GI50,HCT-15 [20],5.25 µM
same,GI50,SF-539 [21],2.24 µM
same,GI50,Malme-3M,66.1 µM
same,GI50,RXF 393 [22],4.68 µM
same,GI50,MDA-MB-435 [23],8.13 µM
same,TGI,TK-10 [24],22.9 µM
same,CC50,KM12,7.41 µM
same,CC50,UACC-257 [25],6.31 µM
same,CC50,U-251 [26],44.7 µM
same,CC50,NCI-H322M,5.75 µM
same,TGI,HCT-15 [27],21.4 µM
same,GI50,SF-268,3.39 µM
same,TGI,CAKI-1,19.1 µM
same,TGI,A549,38.9 µM
same,GI50,EKVX [28],2.29 µM
same,GI50,NCI-H46,2.04 µM
same,GI50,MDA-N,13.5 µM
same,TGI,HT-29,5.25 µM
same,CC50,EKVX [29],9.77 µM
same,TGI,K562,20 µM
same,GI50,Tumor Cell line,45.7 µM
same,CC50,MCF7 [30],6.61 µM
same,TGI,NCI/ADR-RES [31],38.9 µM
same,GI50,NCI-H23 [32],11.7 µM
same,GI50,TK-10 [33],10.5 µM
same,GI50,LOX IMVI,5.25 µM
same,GI50,HOP-62 [34],1.66 µM
